Publication PMC11683478, “Bioprospecting of culturable marine biofilm bacteria for novel antimicrobial peptides” (iMeta, 2024)

Tests used:
Assay in all cases: Antibacterial screen at 200 μg/mL (cell density vs control)
Type in all cases: cell-based
Conditions in all cases: peptide 200 μg/mL, CAMHB, 5 × 10^5 CFU/mL, 37°C, 12 h, OD600; control (no AMP) = 1; three biological replicates
[1] = system: Staphylococcus aureus ATCC 12600
Experimental: (§1) Eight bacterial strains were utilized in the antibacterial experiment. S. aureus ATCC 12600, B. subtilis ATCC 23857, E. coli ATCC 11775, and A. baumannii ATCC 19606 were purchased from Shanghai Beinuo Biology. M. luteus ATCC 4698 and S. bongori ATCC43975 were purchased from Shanghai Beisi Biotechnology. V. owensii ems001 and V. alginolyticus xv22 from the intestines of diseased shrimps were isolated in our laboratory. All strains were cultured in the cation‐adjusted Mueller‐Hinton broth (CAMHB) at 37°C to the logarithmic growth phase (OD600 = 0.5). Then, bacteria were gradient‐diluted using fresh CAMHB to a bacterial density of 5 × 10^5 CFU/mL. Antibacterial experiments were performed in a 96‐well plate with 200 μg/mL final peptide concentration. Four experimental groups were set up, including a blank control (200 μL CAMHB), a negative control (180 μL CAMHB plus 20 μL peptide), a positive control (180 μL bacterial culture plus 20 μL ultrapure water), and an experimental group (180 μL bacterial culture plus 20 μL peptide). Three biological replicates were conducted for each group, and OD600 values were measured after incubation at 37°C for 12 h. Every observed value was removed from the blank control group value. The value of the experimental group was then subtracted from the value of the negative control group therefore eradicating the effect of the peptide on the OD measurement. Student's t‐test allowed the estimation of a notable variation between the experimental and positive groups using a p‐value of 0.05 as the limit. […] The MIC of a peptide against a bacterium was determined as the minimum peptide concentration at which there was no visible bacterial growth.

[2] = system: Bacillus subtilis ATCC 23857
Experimental: as §1

[3] = system: Micrococcus luteus ATCC 4698
Experimental: as §1

[4] = system: Escherichia coli ATCC 11775
Experimental: as §1

[5] = system: Vibrio alginolyticus xv22
Experimental: as §1

[6] = system: Vibrio owensii ems001
Experimental: as §1

[7] = system: Acinetobacter baumannii ATCC 19606
Experimental: as §1

[8] = system: Salmonella bongori ATCC 43975
Experimental: as §1

**Q.** “MRPCMCRIGGGH [Cand-13, chemically synthesized candidate AMP predicted from marine biofilm bacteria]” was tested. Which “cell density relative to control, S. aureus ATCC 12600” value [1] did it give?
**A.** 0.795

**Q.** What about the “cell density relative to control, B. subtilis ATCC 23857” value [2] of the same sequence?
**A.** 1

**Q.** What about the “cell density relative to control, M. luteus ATCC 4698” value [3] of the same sequence?
**A.** 1

**Q.** What about the “cell density relative to control, E. coli ATCC 11775” value [4] of the same sequence?
**A.** 1

**Q.** What about the “cell density relative to control, V. alginolyticus xv22” value [5] of the same sequence?
**A.** 0.942

**Q.** And the “cell density relative to control, V. owensii ems001” value [6]?
**A.** 1

**Q.** What about the “cell density relative to control, A. baumannii ATCC 19606” value [7] of the same sequence?
**A.** 0.816

**Q.** And the “cell density relative to control, S. bongori ATCC 43975” value [8]?
**A.** 0.926

**Q.** How did the “cell density relative to control, S. aureus ATCC 12600” value [1] turn out when “MSCDLQKVRGCLPRLIVHK [Cand-142, chemically synthesized candidate AMP predicted from marine biofilm bacteria]” was run?
**A.** 0.941

**Q.** And the “cell density relative to control, B. subtilis ATCC 23857” value [2]?
**A.** 1

**Q.** What about the “cell density relative to control, M. luteus ATCC 4698” value [3] of the same sequence?
**A.** 1

**Q.** What about the “cell density relative to control, E. coli ATCC 11775” value [4] of the same sequence?
**A.** 1

**Q.** What about the “cell density relative to control, V. alginolyticus xv22” value [5] of the same sequence?
**A.** 1

**Q.** And the “cell density relative to control, V. owensii ems001” value [6]?
**A.** 1

**Q.** What about the “cell density relative to control, A. baumannii ATCC 19606” value [7] of the same sequence?
**A.** 1

**Q.** And the “cell density relative to control, S. bongori ATCC 43975” value [8]?
**A.** 0.989

**Q.** Which “cell density relative to control, S. aureus ATCC 12600” value [1] does the source give for “MIYICTRITKCKLHGGCSSVG [Cand-155, chemically synthesized candidate AMP predicted from marine biofilm bacteria]” here?
**A.** 0

**Q.** And the “cell density relative to control, B. subtilis ATCC 23857” value [2]?
**A.** 0.99

**Q.** And the “cell density relative to control, M. luteus ATCC 4698” value [3]?
**A.** 1

**Q.** And the “cell density relative to control, E. coli ATCC 11775” value [4]?
**A.** 1

**Q.** What about the “cell density relative to control, V. alginolyticus xv22” value [5] of the same sequence?
**A.** 1

**Q.** And the “cell density relative to control, V. owensii ems001” value [6]?
**A.** 0.77

**Q.** And the “cell density relative to control, A. baumannii ATCC 19606” value [7]?
**A.** 1

**Q.** What about the “cell density relative to control, S. bongori ATCC 43975” value [8] of the same sequence?
**A.** 1

**Q.** With “MPASRRCRPCCRLSGC [Cand-7, chemically synthesized candidate AMP predicted from marine biofilm bacteria]” as the sequence, how does the “cell density relative to control, S. aureus ATCC 12600” value [1] read?
**A.** 0.01

**Q.** And the “cell density relative to control, B. subtilis ATCC 23857” value [2]?
**A.** 0.065

**Q.** What about the “cell density relative to control, M. luteus ATCC 4698” value [3] of the same sequence?
**A.** 1

**Q.** And the “cell density relative to control, E. coli ATCC 11775” value [4]?
**A.** 0.989

**Q.** And the “cell density relative to control, V. alginolyticus xv22” value [5]?
**A.** 0.016

**Q.** And the “cell density relative to control, V. owensii ems001” value [6]?
**A.** 0.114

**Q.** What about the “cell density relative to control, A. baumannii ATCC 19606” value [7] of the same sequence?
**A.** 1

**Q.** What about the “cell density relative to control, S. bongori ATCC 43975” value [8] of the same sequence?
**A.** 1

**Q.** For “MPKRPWRACSSIG [Cand-212, chemically synthesized candidate AMP predicted from marine biofilm bacteria]”, which “cell density relative to control, S. aureus ATCC 12600” value [1] is on record?
**A.** 0.896

**Q.** What about the “cell density relative to control, B. subtilis ATCC 23857” value [2] of the same sequence?
**A.** 1

**Q.** And the “cell density relative to control, M. luteus ATCC 4698” value [3]?
**A.** 1

**Q.** What about the “cell density relative to control, E. coli ATCC 11775” value [4] of the same sequence?
**A.** 1

**Q.** What about the “cell density relative to control, V. alginolyticus xv22” value [5] of the same sequence?
**A.** 1

**Q.** What about the “cell density relative to control, V. owensii ems001” value [6] of the same sequence?
**A.** 1

**Q.** And the “cell density relative to control, A. baumannii ATCC 19606” value [7]?
**A.** 0.835

**Q.** What about the “cell density relative to control, S. bongori ATCC 43975” value [8] of the same sequence?
**A.** 0.839

**Q.** With “MKGLSKCVTHVVTAA [Cand-115, chemically synthesized candidate AMP predicted from marine biofilm bacteria]” as the sequence, how does the “cell density relative to control, S. aureus ATCC 12600” value [1] read?
**A.** 0.907

**Q.** What about the “cell density relative to control, B. subtilis ATCC 23857” value [2] of the same sequence?
**A.** 1

**Q.** What about the “cell density relative to control, M. luteus ATCC 4698” value [3] of the same sequence?
**A.** 1

**Q.** What about the “cell density relative to control, E. coli ATCC 11775” value [4] of the same sequence?
**A.** 1

**Q.** What about the “cell density relative to control, V. alginolyticus xv22” value [5] of the same sequence?
**A.** 1

**Q.** What about the “cell density relative to control, V. owensii ems001” value [6] of the same sequence?
**A.** 0.994

**Q.** What about the “cell density relative to control, A. baumannii ATCC 19606” value [7] of the same sequence?
**A.** 1

**Q.** What about the “cell density relative to control, S. bongori ATCC 43975” value [8] of the same sequence?
**A.** 0.935

**Q.** For “MWAVARGRR [Cand-195, chemically synthesized candidate AMP predicted from marine biofilm bacteria]”, which “cell density relative to control, S. aureus ATCC 12600” value [1] is on record?
**A.** 0.945

**Q.** What about the “cell density relative to control, B. subtilis ATCC 23857” value [2] of the same sequence?
**A.** 0.676

**Q.** And the “cell density relative to control, M. luteus ATCC 4698” value [3]?
**A.** 0.987

**Q.** And the “cell density relative to control, E. coli ATCC 11775” value [4]?
**A.** 1

**Q.** What about the “cell density relative to control, V. alginolyticus xv22” value [5] of the same sequence?
**A.** 1

**Q.** What about the “cell density relative to control, V. owensii ems001” value [6] of the same sequence?
**A.** 0.958

**Q.** What about the “cell density relative to control, A. baumannii ATCC 19606” value [7] of the same sequence?
**A.** 1

**Q.** And the “cell density relative to control, S. bongori ATCC 43975” value [8]?
**A.** 1

**Q.** What does the source list for “MRPCMCRIGGRL [Cand-19, chemically synthesized candidate AMP predicted from marine biofilm bacteria]”?
**A.** cell density relative to control, S. aureus ATCC 12600 [1]: 1; cell density relative to control, B. subtilis ATCC 23857 [2]: 1; cell density relative to control, M. luteus ATCC 4698 [3]: 1; cell density relative to control, E. coli ATCC 11775 [4]: 1; cell density relative to control, V. alginolyticus xv22 [5]: 1; cell density relative to control, V. owensii ems001 [6]: 1; cell density relative to control, A. baumannii ATCC 19606 [7]: 1; cell density relative to control, S. bongori ATCC 43975 [8]: 0.929

**Q.** For “MPKVKTKVCHRR [Cand-26, chemically synthesized candidate AMP predicted from marine biofilm bacteria]”, which “cell density relative to control, S. aureus ATCC 12600” value [1] is on record?
**A.** 0.897

**Q.** And the “cell density relative to control, B. subtilis ATCC 23857” value [2]?
**A.** 0.676

**Q.** What about the “cell density relative to control, M. luteus ATCC 4698” value [3] of the same sequence?
**A.** 1

**Q.** And the “cell density relative to control, E. coli ATCC 11775” value [4]?
**A.** 1

**Q.** And the “cell density relative to control, V. alginolyticus xv22” value [5]?
**A.** 0

**Q.** What about the “cell density relative to control, V. owensii ems001” value [6] of the same sequence?
**A.** 0.917

**Q.** What about the “cell density relative to control, A. baumannii ATCC 19606” value [7] of the same sequence?
**A.** 0.88

**Q.** And the “cell density relative to control, S. bongori ATCC 43975” value [8]?
**A.** 0.862

**Q.** What does the source list for “MCTIRTCRRSRPHHCSTHC [Cand-101, chemically synthesized candidate AMP predicted from marine biofilm bacteria]”?
**A.** cell density relative to control, S. aureus ATCC 12600 [1]: 0.01; cell density relative to control, B. subtilis ATCC 23857 [2]: 0; cell density relative to control, M. luteus ATCC 4698 [3]: 0.91; cell density relative to control, E. coli ATCC 11775 [4]: 0.967; cell density relative to control, V. alginolyticus xv22 [5]: 0; cell density relative to control, V. owensii ems001 [6]: 1; cell density relative to control, A. baumannii ATCC 19606 [7]: 0.879; cell density relative to control, S. bongori ATCC 43975 [8]: 0.855

**Q.** Which results are given for “MRHNMCRIGGRL [Cand-203, chemically synthesized candidate AMP predicted from marine biofilm bacteria]”?
**A.** cell density relative to control, S. aureus ATCC 12600 [1]: 1; cell density relative to control, B. subtilis ATCC 23857 [2]: 1; cell density relative to control, M. luteus ATCC 4698 [3]: 0.966; cell density relative to control, E. coli ATCC 11775 [4]: 1; cell density relative to control, V. alginolyticus xv22 [5]: 0.004; cell density relative to control, V. owensii ems001 [6]: 1; cell density relative to control, A. baumannii ATCC 19606 [7]: 1; cell density relative to control, S. bongori ATCC 43975 [8]: 0.825

**Q.** What does the source list for “MVKLLKKMVSLYH [Cand-122, chemically synthesized candidate AMP predicted from marine biofilm bacteria]”?
**A.** cell density relative to control, S. aureus ATCC 12600 [1]: 0; cell density relative to control, B. subtilis ATCC 23857 [2]: 0.002; cell density relative to control, M. luteus ATCC 4698 [3]: 0.728; cell density relative to control, E. coli ATCC 11775 [4]: 0.642; cell density relative to control, V. alginolyticus xv22 [5]: 1; cell density relative to control, V. owensii ems001 [6]: 0.188; cell density relative to control, A. baumannii ATCC 19606 [7]: 0.907; cell density relative to control, S. bongori ATCC 43975 [8]: 0.455

**Q.** Which results are given for “MLKLSWNLCRPIGRRW [Cand-186, chemically synthesized candidate AMP predicted from marine biofilm bacteria]”?
**A.** cell density relative to control, S. aureus ATCC 12600 [1]: 0.112; cell density relative to control, B. subtilis ATCC 23857 [2]: 0; cell density relative to control, M. luteus ATCC 4698 [3]: 0.164; cell density relative to control, E. coli ATCC 11775 [4]: 0.036; cell density relative to control, V. alginolyticus xv22 [5]: 0.192; cell density relative to control, V. owensii ems001 [6]: 0.091; cell density relative to control, A. baumannii ATCC 19606 [7]: 0.276; cell density relative to control, S. bongori ATCC 43975 [8]: 0.245
